The text below walks through data of patent US12581252B2, “Substituted pyrrolo[3,4-b]pyridines as PI3K-α inhibitors” (Relay Therapeutics, Inc., priority 2020, dated 2026).

The target in the test is H1047R PIK3CA enzyme (Homo sapiens, UniProt P42336, H1047R). Briefly: ADP-Glo Biochemical PIK3CA Kinase Assay. In general terms: ADP-Glo first removes unused ATP, then detects ADP through luciferase.
Sequence of H1047R PIK3CA enzyme (P42336 whole entry H1047R): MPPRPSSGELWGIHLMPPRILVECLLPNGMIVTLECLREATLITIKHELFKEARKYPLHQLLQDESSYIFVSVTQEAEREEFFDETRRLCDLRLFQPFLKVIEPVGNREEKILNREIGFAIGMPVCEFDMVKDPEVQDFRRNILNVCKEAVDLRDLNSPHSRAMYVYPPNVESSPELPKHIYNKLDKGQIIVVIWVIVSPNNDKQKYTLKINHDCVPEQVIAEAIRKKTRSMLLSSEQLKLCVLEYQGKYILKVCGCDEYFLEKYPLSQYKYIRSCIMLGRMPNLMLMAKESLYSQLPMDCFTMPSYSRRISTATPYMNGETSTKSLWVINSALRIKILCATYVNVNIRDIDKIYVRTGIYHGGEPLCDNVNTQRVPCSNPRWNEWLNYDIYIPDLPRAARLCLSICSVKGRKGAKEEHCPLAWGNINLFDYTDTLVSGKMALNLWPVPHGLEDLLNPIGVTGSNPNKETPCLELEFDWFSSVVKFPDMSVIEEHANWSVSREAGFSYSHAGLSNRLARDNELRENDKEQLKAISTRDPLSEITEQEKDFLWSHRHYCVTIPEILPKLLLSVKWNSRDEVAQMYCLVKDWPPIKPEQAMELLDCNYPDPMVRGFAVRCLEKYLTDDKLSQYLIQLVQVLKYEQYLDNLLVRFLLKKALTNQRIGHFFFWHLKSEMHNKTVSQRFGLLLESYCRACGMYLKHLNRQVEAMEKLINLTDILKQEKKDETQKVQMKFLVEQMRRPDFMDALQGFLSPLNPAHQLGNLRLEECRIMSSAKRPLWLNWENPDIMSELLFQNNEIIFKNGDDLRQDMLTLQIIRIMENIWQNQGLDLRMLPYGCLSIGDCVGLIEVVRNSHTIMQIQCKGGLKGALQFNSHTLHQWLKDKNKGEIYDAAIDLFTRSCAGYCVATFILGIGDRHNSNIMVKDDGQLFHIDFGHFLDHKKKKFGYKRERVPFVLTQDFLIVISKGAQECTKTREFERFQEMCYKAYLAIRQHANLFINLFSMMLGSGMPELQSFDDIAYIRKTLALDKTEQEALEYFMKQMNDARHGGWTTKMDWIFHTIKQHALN
Sequence of H1047R PIK3CA enzyme (P27986 whole entry partner): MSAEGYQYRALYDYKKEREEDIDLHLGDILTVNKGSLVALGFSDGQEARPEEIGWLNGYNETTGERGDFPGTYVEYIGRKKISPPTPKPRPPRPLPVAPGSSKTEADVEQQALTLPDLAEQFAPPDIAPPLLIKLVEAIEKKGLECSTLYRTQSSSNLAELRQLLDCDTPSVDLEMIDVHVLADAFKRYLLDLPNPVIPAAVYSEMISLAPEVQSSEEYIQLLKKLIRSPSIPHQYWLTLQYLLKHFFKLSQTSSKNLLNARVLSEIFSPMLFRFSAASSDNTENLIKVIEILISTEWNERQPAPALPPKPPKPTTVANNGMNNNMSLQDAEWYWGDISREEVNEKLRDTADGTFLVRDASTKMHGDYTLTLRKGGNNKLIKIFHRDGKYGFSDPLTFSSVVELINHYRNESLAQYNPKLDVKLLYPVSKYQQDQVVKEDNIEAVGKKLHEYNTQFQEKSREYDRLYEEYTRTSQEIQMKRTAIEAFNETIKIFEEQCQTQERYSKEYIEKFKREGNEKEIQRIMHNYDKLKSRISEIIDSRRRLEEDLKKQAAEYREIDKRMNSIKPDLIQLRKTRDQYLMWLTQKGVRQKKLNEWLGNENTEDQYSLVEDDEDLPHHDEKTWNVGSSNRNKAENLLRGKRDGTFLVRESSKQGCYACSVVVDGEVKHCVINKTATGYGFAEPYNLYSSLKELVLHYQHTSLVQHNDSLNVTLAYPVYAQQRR
For the compound `Nc1cc(C(=O)Nc2cccc3c2C(c2cc(F)ccc2Cl)NC3=O)cc(C(F)(F)F)c1` (stereo not drawn) [Compound I-449], the IC50 fell in the range of 1000 to 10000 nM.
For `O=C(Nc1cccc2c1C(c1cc(F)ccc1Cl)NC2=O)c1cc(B(O)O)cc(C(F)(F)F)c1` (stereo not drawn) [Compound I-450], the IC50 lay in the range of 1000 to 10000 nM.
Compound `Cc1ccccc1C1NC(=O)c2cccc(NC(=O)c3ccsn3)c21` (stereo not drawn) [Compound I-451] showed an IC50 of 10000 to 100000 nM.
Compound `Cc1ccccc1C1NC(=O)c2cccc(NC(=O)c3ncsc3Br)c21` (stereo not drawn) [Compound I-452] had an IC50 of 1000 to 10000 nM.
In the case of `Cc1ccccc1C1NC(=O)c2cccc(NC(=O)c3cc(Br)sn3)c21` (stereo not drawn) [Compound I-453], the IC50 lay in the range of 10000 to 100000 nM.
The compound `Cc1ccccc1C1NC(=O)c2cccc(NC(=O)c3cc(F)cc4cc[nH]c34)c21` (stereo not drawn) [Compound I-454] registered an IC50 of 100 to 500 nM.
In turn, `O=C(Nc1cc(-c2cccnc2)nc2c1C(c1cc(F)ccc1Cl)NC2=O)c1cc(F)cc(Cl)c1` (stereo not drawn) [Compound I-455] registered an IC50 of 100 to 500 nM.
Take `Cn1cc(-c2cc(NC(=O)c3cc(F)cc(Cl)c3)c3c(n2)C(=O)NC3c2cc(F)ccc2Cl)ccc1=O` (stereo not drawn) [Compound I-456]: the IC50 was no more than 100 nM.
In turn, `Cc1ncc(-c2cc(NC(=O)c3cc(F)cc(Cl)c3)c3c(n2)C(=O)NC3c2cc(F)ccc2Cl)s1` (stereo not drawn) [Compound I-457] returned an IC50 of no more than 100 nM.
With `O=C(Nc1cc(-c2ccncc2)nc2c1C(c1cc(F)ccc1Cl)NC2=O)c1cc(F)cc(Cl)c1` (stereo not drawn) [Compound I-458], the IC50 was in the range of 100 to 500 nM.
For the compound `Cc1nc(C)c(-c2cc(NC(=O)c3cc(F)cc(Cl)c3)c3c(n2)C(=O)NC3c2cc(F)ccc2Cl)s1` (stereo not drawn) [Compound I-459], the IC50 was no more than 100 nM.
The compound `Cc1ncc(-c2cc(NC(=O)c3cc(F)cc(Cl)c3)c3c(n2)C(=O)NC3c2cc(F)ccc2Cl)cn1` (stereo not drawn) [Compound I-460] gave an IC50 of 100 to 500 nM.
`CC(=O)Nc1cc(NC(=O)c2cc(F)cc(C(F)(F)F)c2)c2c(c1)C(=O)N[C@H]2c1cc(F)ccc1Cl` [Compound I-461] returned an IC50 of no more than 100 nM.
In the case of `CC(=O)Nc1cc(NC(=O)c2cc(F)cc(C(F)(F)F)c2)c2c(c1)C(=O)N[C@@H]2c1cc(F)ccc1Cl` [Compound I-462], the IC50 lay in the range of 1000 to 10000 nM.
The result for `Cc1ccccc1C1NC(=O)c2cccc(NC(=O)c3nscc3Br)c21` (stereo not drawn) [Compound I-463] reads 1000 to 10000 nM; that for `Cc1ccccc1C(=O)Nc1cc(Br)cc2c1C(c1cc(F)ccc1Cl)NC2=O` (stereo not drawn) [Compound I-464], 10000 to 100000 nM; that for `COc1ccc(C(=O)Nc2cc(Br)cc3c2C(c2cc(F)ccc2Cl)NC3=O)cc1` (stereo not drawn) [Compound I-465], 10000 to 100000 nM.
With `O=C(Nc1cc(Br)cc2c1C(c1cc(F)ccc1Cl)NC2=O)c1ccccc1F` (stereo not drawn) [Compound I-466], the IC50 fell in the range of 10000 to 100000 nM.
In turn, `O=C(Nc1cc(NC(=O)C(F)F)cc2c1C(c1cc(F)ccc1Cl)NC2=O)c1cc(F)cc(C(F)(F)F)c1` (stereo not drawn) [Compound I-467] displayed an IC50 of no more than 100 nM.
The result for `O=C(Nc1cc(Br)cc2c1C(c1cc(F)ccc1Cl)NC2=O)c1cc(F)cc(F)c1` (stereo not drawn) [Compound I-468] reads 100 to 500 nM; that for `COc1cccc(C(=O)Nc2cc(Br)cc3c2C(c2cc(F)ccc2Cl)NC3=O)c1` (stereo not drawn) [Compound I-469], 10000 to 100000 nM; that for `O=C(Nc1cc(Br)cc2c1C(c1cc(F)ccc1Cl)NC2=O)c1ccccc1` (stereo not drawn) [Compound I-470], 10000 to 100000 nM.
The compound `COc1ccccc1C(=O)Nc1cc(Br)cc2c1C(c1cc(F)ccc1Cl)NC2=O` (stereo not drawn) [Compound I-471] returned an IC50 of 10000 to 100000 nM.
Turning to `O=C(Nc1cccc2c1C(=O)NS2(=O)=O)c1cc(F)cc(C(F)(F)F)c1` [Compound I-472], the IC50 lay within 10000 to 100000 nM.
As for `Cc1ccccc1C1NC(=O)c2cc(CO)cc(NC(=O)c3cc(F)cc(C(F)(F)F)c3)c21` (stereo not drawn) [Compound I-473], the IC50 is no more than 100 nM.
The compound `COc1cc(C(=O)Nc2cc(N)cc3c2C(c2cc(F)ccc2C(F)F)NC3=O)cc(F)c1N` (stereo not drawn) [Compound I-474] displayed an IC50 of 10000 to 100000 nM.
The result for `Cc1ccccc1C1NC(=O)c2cccc(NC(=O)c3cccc(F)c3)c21` (stereo not drawn) [Compound I-475] reads 1000 to 10000 nM; that for `CN(C)C(=O)Cc1cc(NC(=O)c2cc(F)cc(C(F)(F)F)c2)c2c(c1)C(=O)NC2c1cc(F)ccc1Cl` (stereo not drawn) [Compound I-476], no more than 100 nM.
The result for `O=C(Nc1cc(Br)cc2c1C(c1cc(F)ccc1Cl)NC2=O)c1ccccc1Cl` (stereo not drawn) [Compound I-477] reads 10000 to 100000 nM.
`Cc1ccccc1C1NC(=O)c2cccc(-c3cc4c(F)cc(F)cc4[nH]3)c21` (stereo not drawn) [Compound I-479]: the IC50 fell in the range of 1000 to 10000 nM.
`NCc1ncc(NC(=O)c2cc(F)cc(C(F)(F)F)c2)c2c1C(=O)NC2c1cc(F)ccc1Cl` (stereo not drawn) [Compound I-480] came in with an IC50 of 500 to 1000 nM.
`O=C1NC(c2cc(F)ccc2Cl)c2c(NC(=O)N3CCCC3)cc(Br)cc21` (stereo not drawn) [Compound I-481] came in with an IC50 of 10000 to 100000 nM.
Under `O=C1NC(c2cc(F)ccc2Cl)c2c(NC(=O)N3CCC(F)(F)C3)cc(Br)cc21` (stereo not drawn) [Compound I-482] stands 1000 to 10000 nM.
Compound `O=C(Nc1cc(OS(=O)(=O)F)cc2c1C(c1cc(F)ccc1Cl)NC2=O)c1cc(F)cc(C(F)(F)F)c1` (stereo not drawn) [Compound I-483] registered an IC50 of no more than 100 nM.
The compound `O=C(Nc1cc(C(O)(O)C(F)(F)F)cc2c1C(c1cc(F)ccc1Cl)NC2=O)c1cc(F)cc(C(F)(F)F)c1` (stereo not drawn) [Compound I-484] registered an IC50 of 100 to 500 nM.
The result for `N#Cc1ccc(Cl)c(C2NC(=O)c3cccc(NC(=O)c4cc(F)cc(C(F)(F)F)c4)c32)c1` (stereo not drawn) [Compound I-485] reads 10000 to 100000 nM; that for `O=C(Nc1cccc2c1C(c1cc(-c3ccccc3)ccc1Cl)NC2=O)c1cc(F)cc(C(F)(F)F)c1` (stereo not drawn) [Compound I-486], 1000 to 10000 nM; that for `O=C(Nc1cc(N2CC(C(F)F)C2)nc2c1C(c1cc(F)ccc1Cl)NC2=O)c1cc(F)cc(C(F)(F)F)c1` (stereo not drawn) [Compound I-487], no more than 100 nM.
For `O=C(Nc1cc(N2CC(F)C2)nc2c1C(c1cc(F)ccc1Cl)NC2=O)c1cc(F)cc(C(F)(F)F)c1` (stereo not drawn) [Compound I-488], the IC50 is no more than 100 nM.
Turning to `Cn1cc(-c2ccc(Cl)c(C3NC(=O)c4cccc(NC(=O)c5cc(F)cc(C(F)(F)F)c5)c43)c2)cn1` (stereo not drawn) [Compound I-489], the IC50 is 10000 to 100000 nM.
`N#Cc1cc(NC(=O)c2cc(F)cc(C(F)(F)F)c2)c2c(c1)C(=O)NC2c1cc(F)ccc1Cl` (stereo not drawn) [Compound I-490] displayed an IC50 of no more than 100 nM.
`O=C1NC(c2cc(F)ccc2Cl)c2c(NC(=O)N3CCCC(F)C3)cc(Br)cc21` (stereo not drawn) [Compound I-491] displayed an IC50 of 10000 to 100000 nM.
As for `Cc1ccccc1C1NC(=O)c2cccc(NC3(c4cc(F)cc(C(F)(F)F)c4)COC3)c21` (stereo not drawn) [Compound I-492], the IC50 lay within 1000 to 10000 nM.
For the compound `O=C(O)c1cc(NC(=O)c2cc(F)cc(C(F)(F)F)c2)c2c(c1)C(=O)NC2c1cc(F)ccc1Cl` (stereo not drawn) [Compound I-494], the IC50 is no more than 100 nM.
Take `CC(C)(O)c1cc(NC(=O)c2cc(F)cc3cc[nH]c23)c2c(c1)C(=O)NC2c1cc(F)ccc1Cl` (stereo not drawn) [Compound I-495]: the IC50 is no more than 100 nM.
The result for `O=C(Nc1cc(-c2cnc(C(F)(F)F)s2)nc2c1C(c1cc(F)ccc1Cl)NC2=O)c1cc(F)cc(Cl)c1` (stereo not drawn) [Compound I-496] reads no more than 100 nM.
With `Cc1ccc(-c2cc(NC(=O)c3cc(F)cc(Cl)c3)c3c(n2)C(=O)NC3c2cc(F)ccc2Cl)cn1` (stereo not drawn) [Compound I-497], the IC50 is 100 to 500 nM.
`Cn1ccc(-c2cc(NC(=O)c3cc(F)cc(Cl)c3)c3c(n2)C(=O)NC3c2cc(F)ccc2Cl)cc1=O` (stereo not drawn) [Compound I-499]: the IC50 lay within 100 to 500 nM.
`COc1cc(C)c(C(=O)Nc2cccc3c2C(c2ccccc2C)NC3=O)cn1` (stereo not drawn) [Compound I-501] yielded a 50% inhibitory concentration (IC50) of 10000 to 100000 nM.
Compound `O=C(Nc1cc(-c2ccncc2F)nc2c1C(c1cc(F)ccc1Cl)NC2=O)c1cc(F)cc(Cl)c1` (stereo not drawn) [Compound I-502] returned an IC50 of no more than 100 nM.
Under `Cc1cnccc1-c1cc(NC(=O)c2cc(F)cc(Cl)c2)c2c(n1)C(=O)NC2c1cc(F)ccc1Cl` (stereo not drawn) [Compound I-503] stands no more than 100 nM; under `Cc1ccccc1C1NC(=O)c2cccc(NC(=O)c3c[nH]c(=O)c(Br)c3C)c21` (stereo not drawn) [Compound I-504], 10000 to 100000 nM.
With `COc1cnccc1-c1cc(NC(=O)c2cc(F)cc(Cl)c2)c2c(n1)C(=O)NC2c1cc(F)ccc1Cl` (stereo not drawn) [Compound I-505], the IC50 fell in the range of 100 to 500 nM.
`N#Cc1cnccc1-c1cc(NC(=O)c2cc(F)cc(Cl)c2)c2c(n1)C(=O)NC2c1cc(F)ccc1Cl` (stereo not drawn) [Compound I-506] showed an IC50 of no more than 100 nM.
`NC(=O)c1cnccc1-c1cc(NC(=O)c2cc(F)cc(Cl)c2)c2c(n1)C(=O)NC2c1cc(F)ccc1Cl` (stereo not drawn) [Compound I-507] showed an IC50 of 1000 to 10000 nM.
`Cc1ccccc1[C@@H]1NC(=O)c2c(C(N)=O)ccc(NC(=O)c3cc(F)cc(C(F)(F)F)c3)c21` [Compound I-508] had an IC50 of no more than 100 nM.
As to `Cc1ccccc1[C@H]1NC(=O)c2c(C(N)=O)ccc(NC(=O)c3cc(F)cc(C(F)(F)F)c3)c21` [Compound I-509], the IC50 fell in the range of 100 to 500 nM.
Under `O=C(NCC(F)F)Nc1cc(NC(=O)c2cc(F)cc(C(F)(F)F)c2)c2c(c1)C(=O)NC2c1cc(F)ccc1Cl` (stereo not drawn) [Compound I-510] stands no more than 100 nM.
Under `O=C(CO)Nc1cc(NC(=O)c2cc(F)cc(C(F)(F)F)c2)c2c(c1)C(=O)N[C@H]2c1cc(F)ccc1Cl` [Compound I-511] stands no more than 100 nM; under `O=C(CO)Nc1cc(NC(=O)c2cc(F)cc(C(F)(F)F)c2)c2c(c1)C(=O)N[C@@H]2c1cc(F)ccc1Cl` [Compound I-512], 100 to 500 nM; under `O=C(Nc1cc(NC(=O)N2CC(F)(F)C2)cc2c1C(c1cc(F)ccc1Cl)NC2=O)c1cc(F)cc(C(F)(F)F)c1` (stereo not drawn) [Compound I-513], no more than 100 nM.
With `O=C(Nc1cc(Br)cc2c1C(c1cc(F)ccc1Cl)NC2=O)c1cccc(OC(F)(F)F)c1` (stereo not drawn) [Compound I-514], the IC50 was 500 to 1000 nM.
The compound `O=C(Nc1cc(Br)cc2c1C(c1cc(F)ccc1Cl)NC2=O)c1cc(C(F)(F)F)ccc1F` (stereo not drawn) [Compound I-515] yielded an IC50 of 1000 to 10000 nM.
For `O=C(Nc1cc(Br)cc2c1C(c1cc(F)ccc1Cl)NC2=O)c1ccc(F)c(OC(F)(F)F)c1` (stereo not drawn) [Compound I-516], the IC50 was in the range of 100 to 500 nM.
For the compound `N#Cc1ccc(C(=O)Nc2cc(Br)cc3c2C(c2cc(F)ccc2Cl)NC3=O)cc1` (stereo not drawn) [Compound I-517], the IC50 lay within 10000 to 100000 nM.
The compound `O=C(Nc1cc(Br)cc2c1C(c1cc(F)ccc1Cl)NC2=O)c1ccccc1C(F)F` (stereo not drawn) [Compound I-518] showed an IC50 of 10000 to 100000 nM.

The IC50 is the concentration that inhibits the measured activity by half. Higher therefore signals weaker potency.
